These results are taken from patent US11980620B2, “Compounds and methods for treatment of Diamond Blackfan anemia” (THE CHILDREN'S MEDICAL CENTER CORPORATION, priority 2017, dated 2024).

Series [1] is described as follows: Dose escalation tolerability in mice. The series is classed as in vivo. To be noted: dose escalation up to 20 mg/kg. The source says:
In following evaluation, the effects of administration of SMER28 to mice with irradiation-induced anemia, a model that enables dose-finding and initial testing of safety and bioactivity. […] To assess bioactivity, we measured the levels of autophagic marker LC3 in treated animals. […] (FIG. 10C). We tested the effect of this compound on human cells by treating NSG mice transplanted with human CD34-5F and CB cells. SMER28 increased the output of GlyA^+ RBCs from DBA CD34-5F cells (FIG. 10D).
Drug treatments. SMER28 was purchased from Tocris and diluted in 10 mM aliquots in DMSO. The final concentration for CD34-5F and CB CD34^+erythroid treatments was 0.2-10 μM as indicated in the text. The final concentration for K562 cell treatments was 20-40 μM. Ferric citrate (1-50 μM) and deferoxamine (100-200 μM) (Sigma) were dissolved in PBS and added on days 0-4 of “expansion” culture, and washed off prior to erythroid stage I (days 4-9) differentiation. For in vivo experiments, SMER28 aliquots were diluted in vehicle solution: 30% PEG-400, 5% propylene glycol, and 0.5% Tween-80. Dosing for human xenograft experiments was 2 mg/kg; for mouse models 10-20 mg/kg. Dexamethasone was purchased as Dex-sodium phosphate (DexSP) water-soluble formulation (Santa Cruz), and diluted in PBS vehicle (1 mg/kg). […]

For series [2], the system named is DBA CD34-5F cells. Briefly: Erythroid differentiation (CD71+GlyA+) of CD34-5F cells from DBA iPSCs. The series is classed as cell-based, human. The method, then:
(FIG. 8A) The distribution of 1440 compounds by Z-score in a proliferation-based screen of the Sigma LOPAC chemical library. DBA CD34-5F cells were plated in erythroid-promoting conditions in 384-well format. Erythroid proliferation was measured in the presence of 5 μM of each compound, and converted into Z-scores. The screen was carried out with 3 RPS19 DBA and 2 normal iPSC lines. (FIG. 88) Dose-dependent effect of SMER28 (in μM) on erythroid differentiation, shown as the absolute number of erythroid cells in each drug-treated condition normalized to vehicle (DMSO) control. Erythroid cells were analyzed on day 9 of differentiation using markers CD71 and GlyA. Dose curve was performed with DBA (n=5) and control (n=3) iPSCs. Non-linear regression curve was plotted to calculate EC50 values. (FIGS. 8C and 8D) Dose-dependent effect of SMER28 (in μM) on erythroid differentiation of CB CD34^+ RPS19^+ cells. (FIG. 8C) Absolute number of erythroid cells (analyzed on day 9) in each drug-treated condition normalized to vehicle (DMSO) control (4 independent experiments). Non-linear regression curve was plotted to calculate EC50 values. (FIG. 8D) Representative flow plots of control (shLUC) and RPS19th cells treated with DMSO or increasing doses of SMER28.
(§1) (FIG. 12A) Erythroid differentiation of control and DBA CD34-5F cells treated with DMSO vehicle or SMER28 (10 μM) during the initial CD34^+ progenitor phase (day 0-4 of differentiation), or stage I of erythroid culture (day 4-9 of differentiation). Percent of erythroid cells after stage I of differentiation is indicated in top left for each condition, and quantitated in (FIG. 12B). Data are shown as mean f s.e.m. of 4 independent experiments, with 2 control and 4 DBA iPSCs. (FIG. 12C) Same as (FIG. 12A) for CB CD34+ cells transduced with shRPS19 hairpins. GFP^+ RPS19^sh and GFP^− control cells were quantitated separately. […] (FIG. 12D) RBC pellets at the end of stage III initiated with equal numbers of CD34-5F or CB progenitors. SMER28 was added at […]. (FIG. 12E) May-Grunwald-Giemsa stain of erythroid cells from CB CD34^+ at end of stage III. Arrows indicate enucleated RBCs, which are quantitated by flow cytometry. (FIG. 12F) Quantitation of the enucleation efficiency (left) of GLYA^+ cells. Data in FIGS. 12E-12F represents 3 independent experiments. For all panels, *p<0.05, **p<0.01.
Erythroid differentiation. Differentiation was performed essentially as described (Lee et al., 2015). CD34 expansion phase (4 days): To initiate differentiation CD34-5F cells were cultured in progenitor media without Dox. Stage I (5 days): Media were changed to: IMDM+1% BSA (Gibco), 20% FBS (Stem Cell Technologies), 1 mM L-glutamine, penicillin/streptomycin, 500 μg/ml h-transferrin (Sigma), 10 μg/ml human insulin (CellSciences), 1 μM β-estradiol, 1 μM Dex, 6U Epo (CellSciences), 100 μg/ml SCF, and 5 μg/ml IL-3. Cells were seeded at a density of <1×10^5 cells/ml in 24-well plates. Stage 11 (4 days). Media were changed to: IMDM+1% BSA, 20% FBS, 1 mM L-glutamine, penicillin/streptomycin, 500 μg/ml h-transferrin, 10 μg/ml human insulin, 6U Epo, and 50 μg/ml SCF. Cells were seeded at a density of <2×10^5 cells/ml in 24-well plates. Stage III (10 days) Media were changed to: IMDM+1% BSA, 20% FBS, 1 mM L-glutamine, penicillin/streptomycin, 500 μg/ml h-transferrin, 10 μg/ml human insulin, and 2U Epo. Cells were seeded at a density of <5×10^5 cells/ml in 24-well plates.
Drug treatments. […]

For series [3], the system named is erythroid cells from CB CD34+. Briefly: Enucleation efficiency of GLYA+ cells at end of stage III. It counts as cell-based, human. As to conditions: treatment during stages I-III; vehicle 2.4%±1.2. The method, then: as §1
Erythroblasts proliferate rapidly to give rise to terminally differentiated RBCs. […]

The term EC50 denotes the concentration needed to bring the measured effect to its halfway point. Turning to `C=CCNc1ncnc2ccc(Br)cc12` [SMER28, 6-Bromo-N-2-propenyl-4-quinazolinam], the “tolerability / overt toxicity” value in series [1] is “well tolerated”. Besides, the “output of GlyA+ cells” value in series [2] (10 μM, treated only during initial expansion phase (day 0-4), DBA progenitors) is recorded as “increased output”. Also, in series [2] (10 μM, treatment during stage I (day 4-9)), the “CD71+GlyA- pre-erythroblasts” value is listed as “expanded”. For the same molecule, in series [2] (10 μM, treatment of erythroblasts during stage I (day 4-9)), the “number of GlyA+ cells” value is “did not significantly increase”. Also, in series [2] (DBA iPSCs), the “effect on number of erythroid cells normalized to vehicle” value was determined as 9.8 fold. The EC50 in series [2] (Homo sapiens, iPSC, 216 h, RPS19+/- and RPL5 DBA iPSCs, day 9, normalized to DMSO, 95% confidence interval 0.63 to 2.37 μM, read-out: EC50, absolute number of CD71+GlyA+ erythroid cells) was 1.5 µM. Also, the efficiency of enucleation in series [3] is 5.6%±1.6.
